From patent publication US20220289758A1, “7-OXA-3,4-DIAZABICYCLO [4.1.0] HEPT-4-EN-2-ONE COMPOUND AND HERBICIDE” (Nippon Soda Co., Ltd., priority 2019, published 2022)

Key:
Amaranthus retroflexus = assay: Foliar spraying treatment, weed killing rate; format: in vivo; conditions: 504 h, read-out: herbicidal activity; for pest or weed control at 250 g/ha: foliar spray, 250 g per hectare, after 3 weeks (Table 15); for pest or weed control at 1000 g/ha: foliar spray, 1,000 g per hectare, after 3 weeks (Table 14)
Procedure: (§1) (1) Preparation of Test Emulsion
(§2) POA allylphenyl ether (4.1 parts by weight), POE-POP glycol (1 part by weight), POE sorbitan laurate (0.8 parts by weight), glycerin (2.6 parts by weight), dimethylformamide (65.9 parts by weight), N-methylpyrrolidone (5.1 parts by weight), cyclohexanone (15.4 parts by weight), and aromatic hydrocarbons (5.1 parts by weight) were mixed and dissolved to prepare an emulsion. The compound of the present invention (4 mg) was dissolved in this emulsion (100 μL) to prepare a test emulsion. POA means “polyoxyalkylene”, POE means “polyoxyethylene”, and POP means “polyoxypropylene”.
(§3) (2) Foliar Spraying Treatment
(§4) A 150 cm^2 pot was filled with soil, and seeds of Avena sativa, Matricaria chamomilla, Setaria faberi, Digitaria ciliaris, Abutilon theophrasti and Amaranthus retroflexus were sown into the surface layer which was covered lightly with soil. Thereafter, they were grown in a greenhouse. When each plant grew to a plant height of 2 to 4 cm, the above test emulsion was diluted so that the amount of the active ingredient became a predetermined amount, and sprayed on the foliage with a small sprayer at a spray water volume of 250 L per hectare.
(§5) After 3 weeks, above ground weights of weeds in the untreated and treated areas were measured for each weed, and the weed killing rate was calculated by the following calculation formula.
(§6) (4) Calculation Formula for Weed Killing Rate
(§7) Weed killing rate (%)=[(above ground weight of weeds in untreated area)−(above ground weight of weeds in treated area)/(above ground weight of weeds in untreated area)]×100

Digitaria ciliaris = assay: Foliar spraying treatment, weed killing rate; format: in vivo; conditions: 504 h, read-out: herbicidal activity; for pest or weed control at 250 g/ha: foliar spray, 250 g per hectare, after 3 weeks (Table 13); for pest or weed control at 1000 g/ha: foliar spray, 1,000 g per hectare, after 3 weeks (Table 12)
Procedure: as §1, §2, §3, §4, §5, §6, §7

Setaria faberi = assay: Foliar spraying treatment, weed killing rate; format: in vivo; conditions: 504 h, read-out: herbicidal activity; for pest or weed control at 250 g/ha: foliar spray, 250 g per hectare, after 3 weeks (Table 11); for pest or weed control at 1000 g/ha: foliar spray, 1,000 g per hectare, after 3 weeks (Table 10)
Procedure: as §1, §2, §3, §4, §5, §6, §7

Matricaria chamomilla = assay: Foliar spraying treatment, weed killing rate; format: in vivo; conditions: 504 h, read-out: herbicidal activity; for pest or weed control at 250 g/ha: foliar spray, 250 g per hectare, after 3 weeks (Table 7); for pest or weed control at 1000 g/ha: foliar spray, 1,000 g per hectare, after 3 weeks (Table 6)
Procedure: as §1, §2, §3, §4, §5, §6, §7

Abutilon theophrasti = assay: Foliar spraying treatment, weed killing rate; format: in vivo; conditions: 504 h, read-out: herbicidal activity; for pest or weed control at 250 g/ha: foliar spray, 250 g per hectare, after 3 weeks (Table 5); for pest or weed control at 1000 g/ha: foliar spray, 1,000 g per hectare, after 3 weeks (Table 4)
Procedure: as §1, §2, §3, §4, §5, §6, §7

melting point [°C] | Structure (SMILES) | pest or weed control at 250 g/ha (Amaranthus retroflexus) [%] | pest or weed control at 1000 g/ha (Amaranthus retroflexus) [%] | pest or weed control at 250 g/ha (Digitaria ciliaris) [%] | pest or weed control at 1000 g/ha (Digitaria ciliaris) [%] | pest or weed control at 250 g/ha (Setaria faberi) [%] | pest or weed control at 1000 g/ha (Setaria faberi) [%] | pest or weed control at 250 g/ha (Matricaria chamomilla) [%] | pest or weed control at 1000 g/ha (Matricaria chamomilla) [%] | pest or weed control at 250 g/ha (Abutilon theophrasti) [%] | pest or weed control at 1000 g/ha (Abutilon theophrasti) [%]
128 | COC12OC1(c1ccc(C(F)(F)F)cc1S(C)(=O)=O)C=NN(C)C2=O (centres unmarked) [Compound A-1, 1-methoxy-3-methyl-6-(2-(methylsulfonyl)-4-(trifluoromethyl)phenyl)-7-oxa-3,4-diazabicyclo [4.1.0] hept-4-en-2-one] | ≥ 80 | ≥ 80 | ≥ 80 | ≥ 80 | ≥ 80 | ≥ 80 | ≥ 80 | ≥ 80 | ≥ 80 | ≥ 80
 | COC12OC1(c1ccc(C(F)(F)F)c3c1CCCS3(=O)=O)C=NN(C)C2=O (centres unmarked) [Compound B-1, 1-methoxy-3-methyl-6-(1,1-dioxido-8-(trifluoromethyl)thiochroman-5-yl)-7-oxa-3,4-diazabicyclo [4.1.0] hept-4-en-2-one] | ≥ 80 | ≥ 80 | ≥ 80 | ≥ 80 | ≥ 80 | ≥ 80 | ≥ 80 | ≥ 80 | ≥ 80 | ≥ 80
 | CN1N=CC2(c3ccc(C(F)(F)F)c4c3CCCS4(=O)=O)OC2(OCCON2C(=O)c3ccccc3C2=O)C1=O (centres unmarked) [Compound B-2] | ≥ 80 |  | ≥ 80 |  | ≥ 80 |  | ≥ 80 |  | ≥ 80 | 
112 to 117 | CN1N=CC2(c3ccc(C(F)(F)F)c4c3CCCS4(=O)=O)OC2(OCc2ccn(CC(F)(F)F)n2)C1=O (centres unmarked) [Compound B-3] | ≥ 80 |  |  |  | ≥ 80 |  |  |  | ≥ 80 | 
158 to 161 | COC12OC1(c1ccc(C(F)(F)F)c(N=S3(=O)CCCCC3)c1Cl)C=NN(C)C2=O (centres unmarked) [Compound B-4] |  |  |  |  | ≥ 80 |  |  |  |  | 
132 to 134 | COC12OC1(c1ccc(C(F)(F)F)c3c1S(=O)(=O)CCC3)C=NN(C)C2=O (centres unmarked) [Compound B-5] | ≥ 80 |  | ≥ 80 |  | ≥ 80 |  | ≥ 80 |  | ≥ 80 | 
150 to 153 | COC12OC1(c1cc3c(cc1S(C)(=O)=O)CCC3)C=NN(C)C2=O (centres unmarked) [Compound B-6] | ≥ 80 | ≥ 80 | ≥ 80 | ≥ 80 |  |  | ≥ 80 | ≥ 80 | ≥ 80 | ≥ 80
179 to 181 | COC12OC1(c1cccc3c1CCCS3(=O)=O)C=NN(C)C2=O (centres unmarked) [Compound B-7] |  | ≥ 80 |  | ≥ 80 |  | ≥ 80 | ≥ 80 | ≥ 80 |  | ≥ 80
153 to 155 | COC12OC1(c1ccc(C(F)(F)F)c3c1CCCO3)C=NN(C)C2=O (centres unmarked) [Compound B-8] | ≥ 80 | ≥ 80 |  |  |  |  |  |  |  | ≥ 80
 | COC12OC1(c1ccc(C(F)(F)F)c3c1CCCCS3(=O)=O)C=NN(C)C2=O (centres unmarked) [Compound B-9] | ≥ 80 | ≥ 80 | ≥ 80 | ≥ 80 | ≥ 80 | ≥ 80 | ≥ 80 | ≥ 80 | ≥ 80 | ≥ 80
172 to 177 | COC12OC1(c1ccc(C(F)(F)F)c3c1CCS3(=O)=O)C=NN(C)C2=O (centres unmarked) [Compound B-10] | ≥ 80 | ≥ 80 |  |  |  |  | ≥ 80 | ≥ 80 | ≥ 80 | ≥ 80
 | COC12OC1(c1cc(C)c3c(c1C)C1(CCS3(=O)=O)OCCO1)C=NN(C)C2=O (centres unmarked) [Compound B-11] | ≥ 80 | ≥ 80 | ≥ 80 | ≥ 80 |  | ≥ 80 |  | ≥ 80 | ≥ 80 | ≥ 80
 | COC12OC1(c1ccc3c(c1C)S(=O)(=O)CCC3(C)C)C=NN(C)C2=O (centres unmarked) [Compound B-12] |  | ≥ 80 |  | ≥ 80 |  |  |  | ≥ 80 |  | ≥ 80
 | COC12OC1(c1ccc(C(F)(F)F)c3c1OCCS3(=O)=O)C=NN(C)C2=O (centres unmarked) [Compound B-13] | ≥ 80 | ≥ 80 |  | ≥ 80 |  |  | ≥ 80 | ≥ 80 | ≥ 80 | ≥ 80
65 to 66 | COC12OC1(c1ccc(C(F)(F)F)cc1S(C)(=O)=O)C=NN(C1CCCCO1)C2=O (centres unmarked) [Compound B-14] | ≥ 80 | ≥ 80 |  | ≥ 80 |  | ≥ 80 |  |  |  | 
 | COC12OC1(c1ccc(C(F)(F)F)c(S(C)(=O)=Nc3ccc(Cl)cc3)c1C)C=NN(C)C2=O (centres unmarked) [Compound B-15] | ≥ 80 |  | ≥ 80 |  | ≥ 80 |  | ≥ 80 |  | ≥ 80 | 
205 to 206 | COC12OC1(c1cc(F)c(C(F)(F)F)c3c1CCCS3(=O)=O)C=NN(C)C2=O (centres unmarked) [Compound B-16] |  | ≥ 80 |  | ≥ 80 |  | ≥ 80 |  | ≥ 80 |  | ≥ 80
